Data: PubChem BioAssay AID1963860 (Molecular Pharmacology Branch, DTP, NCI, 2024)
pIC50: −log10 of the molar value.

Test system: CN0375-F725-PDC KRAS spheroid viability
Assay: Anticancer human tumor CN0375-F725-PDC patient-derived colon carcinoma cell line growth inhibition [KRAS2]
Conditions: spheroids with HUVEC and MSC; for pIC50: curve of first compound; for viability, T/C: stronger effect = lower value
Procedure, shortened: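 KRAS-mutant tumor cells were grown as spheroids with HUVEC endothelial cells and human MSCs as stroma. Targeted agents were tested alone and with KRAS pathway inhibitors. Doses started at or near clinical Cmax, or 10 microM, descending half-log.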

[1] = second compound 0.1 µM, first compound 0.0316 µM
[2] = second compound 0.1 µM, first compound 0.1 µM
[3] = second compound 0.1 µM, first compound 0.316 µM
[4] = second compound 0.1 µM, first compound 1 µM
[5] = second compound 0.1 µM, first compound 3.16 µM
[6] = second compound 0.1 µM, first compound 10 µM
[7] = second compound 0.316 µM, first compound 0.0316 µM
[8] = second compound 0.316 µM, first compound 0.1 µM
[9] = second compound 0.316 µM, first compound 0.316 µM
[10] = second compound 0.316 µM, first compound 1 µM
[11] = second compound 0.316 µM, first compound 3.16 µM
[12] = second compound 0.316 µM, first compound 10 µM
[13] = second compound 1 µM, first compound 0.0316 µM
[14] = second compound 1 µM, first compound 0.1 µM
[15] = second compound 1 µM, first compound 0.316 µM
[16] = second compound 1 µM, first compound 1 µM
[17] = second compound 1 µM, first compound 3.16 µM
[18] = second compound 1 µM, first compound 10 µM
[19] = second compound 3.16 µM, first compound 0.0316 µM
[20] = second compound 3.16 µM, first compound 0.1 µM
[21] = second compound 3.16 µM, first compound 0.316 µM
[22] = second compound 3.16 µM, first compound 1 µM
[23] = second compound 3.16 µM, first compound 3.16 µM
[24] = second compound 3.16 µM, first compound 10 µM
[25] = second compound 10 µM, first compound 0.0316 µM
[26] = second compound 10 µM, first compound 0.1 µM
[27] = second compound 10 µM, first compound 0.316 µM
[28] = second compound 10 µM, first compound 1 µM
[29] = second compound 10 µM, first compound 3.16 µM
[30] = second compound 10 µM, first compound 10 µM
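Also: spheroids exposed to agents for 7 days.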

SMILES | pIC50 (second compound 0.1 µM) | pIC50 (second compound 0.316 µM) | pIC50 (second compound 1 µM) | pIC50 (second compound 3.16 µM) | pIC50 (second compound 10 µM) | viability, T/C [1] | viability, T/C [2] | viability, T/C [3] | viability, T/C [4] | viability, T/C [5] | viability, T/C [7] | viability, T/C [8] | viability, T/C [9] | viability, T/C [10] | viability, T/C [11] | viability, T/C [13] | viability, T/C [14] | viability, T/C [15] | viability, T/C [16] | viability, T/C [17] | further results
CC1(C)CCC(CN2CCN(c3ccc(C(=O)NS(=O)(=O)c4ccc(NCC5CCOCC5)c([N+](=O)[O-])c4)c(Oc4cnc5[nH]ccc5c4)c3)CC2)=C(c2ccc(Cl)cc2)C1 + CNCc1ccccc1-c1csc(C(C)Nc2nc(C)nc3cc(OC)c(OC)cc23)c1 | 5.32 | 5.55 | > 7.50 | > 7.50 | > 7.50 | 104% | 104% | 103% | 96.2% | 61.6% | 90.7% | 95.5% | 93.4% | 89.5% | 45.9% | 36.5% | 42.3% | 40.7% | 50.9% | 15.2% | viability, T/C [6]: 29.8%; viability, T/C [12]: 18.7%; viability, T/C [18]: 7.89%; viability, T/C [19]: 0.26%; viability, T/C [20]: 0.27%; viability, T/C [21]: 0.18%; viability, T/C [22]: 0.2%; viability, T/C [23]: 0.25%; viability, T/C [24]: 0.68%; viability, T/C [25]: 0.12%; viability, T/C [26]: 0.14%; viability, T/C [27]: 0.13%; viability, T/C [28]: 0.13%; viability, T/C [29]: 0.16%; viability, T/C [30]: 0.19%
CC1OCC2(CCN(c3cnc(Sc4ccnc(N)c4Cl)c(N)n3)CC2)C1N (configuration not stated) + COc1cc2nc(C)nc(NC(C)c3cc(N)cc(C(F)(F)F)c3)c2cc1OC1CCOC1 | < 5.00 | < 5.00 | < 5.00 | 5.33 | > 7.50 | 95.5% | 83.2% | 80.6% | 81.2% | 76% | 90.5% | 91.7% | 73.3% | 77.8% | 71% | 91.3% | 87.2% | 81.3% | 73.9% | 68.7% | viability, T/C [6]: 70.7%; viability, T/C [12]: 60.6%; viability, T/C [18]: 60.4%; viability, T/C [19]: 80.9%; viability, T/C [20]: 73.8%; viability, T/C [21]: 69%; viability, T/C [22]: 57.2%; viability, T/C [23]: 61.3%; viability, T/C [24]: 40.1%; viability, T/C [25]: 13.6%; viability, T/C [26]: 12.1%; viability, T/C [27]: 12.8%; viability, T/C [28]: 8.09%; viability, T/C [29]: 8.5%; viability, T/C [30]: 5.15%
COC(=O)c1ccc2c(C(=Nc3ccc(N(C)C(=O)CN4CCN(C)CC4)cc3)c3ccccc3)c(O)[nH]c2c1 + C=CC(=O)N1CCN(c2nc(=O)n(-c3c(C)ccnc3C(C)C)c3nc(-c4c(O)cccc4F)c(F)cc23)C(C)C1 | 5.43 | 5.63 | 5.75 | 5.73 | 5.81 | 98.2% | 100% | 95.3% | 94.8% | 57.7% | 104% | 103% | 93.8% | 96.1% | 34.2% | 106% | 108% | 96.3% | 88.1% | 12.5% | viability, T/C [6]: 0.25%; viability, T/C [12]: 0.2%; viability, T/C [18]: 0.2%; viability, T/C [19]: 104%; viability, T/C [20]: 106%; viability, T/C [21]: 102%; viability, T/C [22]: 90%; viability, T/C [23]: 15.7%; viability, T/C [24]: 0.22%; viability, T/C [25]: 97.9%; viability, T/C [26]: 98.2%; viability, T/C [27]: 87.1%; viability, T/C [28]: 73%; viability, T/C [29]: 12.3%; viability, T/C [30]: 0.26%
O=C(c1cc(Cc2n[nH]c(=O)c3ccccc23)ccc1F)N1CCN(C(=O)C2CC2)CC1 + CC1OCC2(CCN(c3cnc(Sc4ccnc(N)c4Cl)c(N)n3)CC2)C1N | < 5.00 | < 5.00 | < 5.00 | < 5.00 | < 5.00 | 97.7% | 98.4% | 91.3% | 100% | 97.8% | 100% | 93.9% | 90.3% | 89.6% | 93% | 107% | 98.3% | 93.6% | 92.6% | 97.6% | viability, T/C [6]: 90%; viability, T/C [12]: 86.4%; viability, T/C [18]: 93.9%; viability, T/C [19]: 83.4%; viability, T/C [20]: 82.2%; viability, T/C [21]: 82.5%; viability, T/C [22]: 80.7%; viability, T/C [23]: 80.7%; viability, T/C [24]: 76.4%; viability, T/C [25]: 79.9%; viability, T/C [26]: 83.6%; viability, T/C [27]: 106%; viability, T/C [28]: 77%; viability, T/C [29]: 71.4%; viability, T/C [30]: 71.1%
CC(C)n1nc(-c2ccc3oc(N)nc3c2)c2c(N)ncnc21 | – | – | – | – | – | – | – | – | – | – | – | – | – | – | – | – | – | – | – | – | viability, T/C (compound 0.000316 µM): 97.5% [middle of 5 runs]; viability, T/C (compound 0.001 µM): 93.1% [middle of 5 runs]; viability, T/C (compound 0.00316 µM): 79% [middle of 5 runs]; viability, T/C (compound 0.01 µM): 70.7% [middle of 5 runs]; viability, T/C (compound 0.0316 µM): 55.5% [middle of 5 runs]; viability, T/C (compound 0.1 µM): 45.2% [middle of 5 runs]; IC50 (curve of compound): 64.7 nM [middle of 5 runs]
CC1COCCN1c1cc(-c2ccnn2C)c2ccnc(-c3ccn[nH]3)c2n1 (configuration not stated) + C=CC(=O)N1CCN(c2nc(=O)n(-c3c(C)ccnc3C(C)C)c3nc(-c4c(O)cccc4F)c(F)cc23)C(C)C1 | < 5.50 | < 5.50 | < 5.50 | < 5.50 | 5.75 | 99.4% | 88.8% | 81.6% | 65.5% | 55.8% | 95.3% | 80% | 78.2% | 65.5% | 52.6% | 103% | 89% | 80.5% | 65.6% | 53.8% | viability, T/C (second compound 0.1 µM, first compound 0.01 µM): 107%; viability, T/C (second compound 0.316 µM, first compound 0.01 µM): 104%; viability, T/C (second compound 1 µM, first compound 0.01 µM): 100%; viability, T/C (second compound 3.16 µM, first compound 0.01 µM): 101%; viability, T/C [19]: 107%; viability, T/C [20]: 89.3%; viability, T/C [21]: 76.7%; viability, T/C [22]: 64.4%; viability, T/C [23]: 53.5%; viability, T/C (second compound 10 µM, first compound 0.01 µM): 102%; viability, T/C [25]: 103%; viability, T/C [26]: 84.5%; viability, T/C [27]: 71.7%; viability, T/C [28]: 55.5%; viability, T/C [29]: 44.6%
